Experimental findings from patent publication US20050009759A1 (priority 2001, published 2005) are described below.

The nature of series [1]: Solubility in water. It is filed as physicochemical. Conditions: for solubility: water, in water / aqueous solvents.
Series [2] concerns L1210 cells. In words: In vitro cytotoxicity, microculture tetrazolium assay (MTA). The format is cell-based. Particulars: Mus musculus. How it is done:
Cytotoxicity was tested against L1210 (mouse leukemic cell line) cells using the MTA assay.
L1210 cells were cultivated in RPMI 1640 medium (Gibco) supplemented with 10% fetal calf serum, 2 mM L-glutaine, 100 units/mL penicillin, 100 µg/mL streptomycin, and 10 mM HEPES buffer (pH=7.4). Cytotoxicity was measured by the microculture tetrazolium assay (MTA). Cells were exposed to graded concentrations of drug (nine serial dilutions in triplicate) for 48 h. Results are expressed as IC50, the concentration which reduced by 50% the optical density of treated cells with respect to the optical density of untreated controls.

In series [3] the target is E. coli β-D-glucuronidase (Escherichia coli, UniProt P05804). The series is described as follows: Enzymatic cleavage by E. coli β-D-glucuronidase (kinetics of drug release, HPLC). The format is biochemical. Conditions: E. coli β-D-glucuronidase in phosphate buffer; 500 μg/mL prodrug, 20 μg/mL E. coli β-D-glucuronidase, phosphate buffer pH 7.2, 37° C. The protocol: Prodrug 1a (500 μg/mp) was incubated with E. coli β-D-glucuronidase (20 μ/mL). Aliquot samples were analysed by IPLC at different times (FIG. 1: Enzymatic cleavage of prodrug 1a).
Chain of E. coli β-D-glucuronidase (P05804 whole entry): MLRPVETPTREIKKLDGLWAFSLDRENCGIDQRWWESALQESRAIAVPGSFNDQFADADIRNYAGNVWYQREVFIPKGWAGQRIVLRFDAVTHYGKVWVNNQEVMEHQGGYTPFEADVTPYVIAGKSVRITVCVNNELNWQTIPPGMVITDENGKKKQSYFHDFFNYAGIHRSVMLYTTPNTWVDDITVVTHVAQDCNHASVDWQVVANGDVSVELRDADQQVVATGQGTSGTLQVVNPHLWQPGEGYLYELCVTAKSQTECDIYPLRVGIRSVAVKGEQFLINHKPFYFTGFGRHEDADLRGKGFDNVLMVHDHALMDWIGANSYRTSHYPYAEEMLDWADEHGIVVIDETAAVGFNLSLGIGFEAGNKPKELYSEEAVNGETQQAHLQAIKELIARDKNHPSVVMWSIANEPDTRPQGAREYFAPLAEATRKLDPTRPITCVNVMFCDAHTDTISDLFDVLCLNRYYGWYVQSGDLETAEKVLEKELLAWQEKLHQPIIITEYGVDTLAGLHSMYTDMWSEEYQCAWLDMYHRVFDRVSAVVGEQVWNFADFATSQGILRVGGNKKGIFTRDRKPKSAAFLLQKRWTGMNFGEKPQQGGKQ
(§1) Good separation in a short delay was obtained with a reversed-phase Phenyl analytical column (Spherisorb 250×4,6) using isocratic conditions (1 mL/min) of 60% phosphate buffer (0.02 M, pH 3) and 40% acetonitrile with UV detection at 254 nm. Using these conditions the retention time of etoposide, prodrug, and cyclized spacer were 4.9, 3.4, 5.8. min., respectively.
Hydrolysis was investigated by incubating a solution of 500 μg/mL of prodrug 3 and 20 μg/mL of E. coli β-D-glucuronidase in 0.02 M phosphate buffer (pH 7.2) at 37° C. Aliquots (100 μl) were taken at various times and analyzed by HPLC after dilution with 300 μl of eluent.

The nature of series [4]: Stability in phosphate buffer solution followed by HPLC. Particulars: phosphate buffer pH 7 (0.02 M, pH 7.2), 37° C. It is filed as physicochemical. How it is done: The stability of 1a was followed by HPLC measurements in buffer solution at pH 7 for 24 hours. More than 90% of the prodrug was recovered after that time, meaning that the prodrug 1a is stable in vitro.
as §1
A solution of […] of prodrug 1a in 0.02 M phosphate buffer (pH 7.2) was incubated for various times at 37° C. Aliquots (100 μL) were taken at various times and analyzed by HPLC after dilution with eluent (300 μL).

In brackets after ≈: the same amount, converted by molar mass. Read-outs that look alike come from different tables or passages of the source.

In the case of `COc1cc([C@@H]2c3cc4c(cc3[C@@H](O[C@@H]3O[C@@H]5CO[C@@H](C)O[C@H]5[C@H](O)[C@H]3O)[C@H]3COC(=O)[C@H]23)OCO4)cc(OC)c1O` [etoposide, reference compound], the solubility in series [1] was determined as 0.1 mg/mL (≈ 0.17 mM). For the same molecule, in series [2] (L1210 cell line, 48 h exposure, without enzyme, read-out: IC50), the IC50 turned out to be 834 nM.
Take `COc1cc([C@@H]2c3cc4c(cc3C(OC3OC5COC(C)O[C@H]5C(O)[C@@H]3O)[C@H]3COC(=O)[C@H]23)OCO4)cc(OC)c1OC(=O)N(C)c1cc([N+](=O)[O-])ccc1O[C@@H]1OC(C(=O)O)[C@@H](O)C(O)C1O` (stereo partly drawn) [prodrug 1a]: the melting point came to 186 °C. For the same molecule, in series [1] (in water, comparable conditions, versus etoposide), the “fold more soluble than the corresponding drug” value was “approximately 200 fold”. In addition, the solubility in series [1] was roughly 20 mg/mL (≈ 20.9 mM). For the same molecule, the half-life at 500 μg/mL in series [3] is less than 25 min. Besides, the “prodrug recovered/remaining after 24 hours” value in series [4] was “More than 90%”. Also, in series [2] (L1210, 48 h), the IC50 is 50200 nM. Besides, the IC50 in series [2] (L1210, read-out: IC50 after hydrolysis by β-glucuronidase) came out at 930 nM.

As a reminder, the solubility is how much of the substance goes into solution per volume. A higher solubility goes with a readily soluble substance. In general, IC50 refers to the midpoint of a concentration-inhibition curve. The term melting point denotes the temperature of the solid-liquid transition. The half-life is the time in which the quantity being followed falls by half.
